Experimental data reported in PMC4674819, “Identification of Novel Inhibitors of Organic Anion Transporting Polypeptides 1B1 and 1B3 (OATP1B1 and OATP1B3) Using a Consensus Vote of Six Classification Models” (Molecular Pharmaceutics, 2015).

Experiments:
OATP1B1 [1] = molecular target: T1, OATP1B1 (Homo sapiens, UniProt Q9Y6L6); experiment: Inhibition of FMTX uptake in CHO cells stably transfected with OATP1B1; assay type: cell-based
T1 construct: host or cells: CHO (Chinese hamster ovary) cells, stably transfected
T1 sequence (Q9Y6L6 1-691): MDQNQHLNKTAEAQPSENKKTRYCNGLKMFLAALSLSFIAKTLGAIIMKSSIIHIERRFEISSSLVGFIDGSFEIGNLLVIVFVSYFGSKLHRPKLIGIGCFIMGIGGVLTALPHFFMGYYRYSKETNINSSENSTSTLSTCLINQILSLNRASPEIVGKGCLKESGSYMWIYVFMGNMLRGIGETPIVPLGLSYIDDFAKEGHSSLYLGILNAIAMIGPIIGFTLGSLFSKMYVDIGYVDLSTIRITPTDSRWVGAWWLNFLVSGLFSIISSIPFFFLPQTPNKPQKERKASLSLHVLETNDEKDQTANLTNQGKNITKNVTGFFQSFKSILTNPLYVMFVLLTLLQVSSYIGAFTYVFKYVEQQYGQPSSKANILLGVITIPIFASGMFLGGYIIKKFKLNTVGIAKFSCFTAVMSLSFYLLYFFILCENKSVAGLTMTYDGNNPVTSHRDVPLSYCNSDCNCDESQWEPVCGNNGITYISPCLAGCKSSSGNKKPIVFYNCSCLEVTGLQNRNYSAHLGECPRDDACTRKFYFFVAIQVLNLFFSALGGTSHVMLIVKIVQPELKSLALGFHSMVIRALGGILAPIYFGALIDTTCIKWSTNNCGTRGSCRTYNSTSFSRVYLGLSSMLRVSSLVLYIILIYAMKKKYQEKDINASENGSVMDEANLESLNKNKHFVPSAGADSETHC
Description: (§1) Chinese hamster ovary (CHO) cells that were stably transfected with OATP1B1 or OATP1B3 and wild-type CHO cells were provided by the University of Zurich, Switzerland, and have been extensively characterized previously.[24],[56],[57] Cells were grown in Dulbecco’s modified Eagle medium (DMEM) supplemented with 10% FCS, 50 μg/mL L-proline, 100 U/mL penicillin, and 100 μg/mL streptomycin. The culture media of the transfected CHO cells additionally contained 500 μg/mL Geneticin sulfate (G418) (Sigma-Aldrich, Munich, Germany). Media and supplements were obtained from Invitrogen (Karlsruhe, Germany). Cells were incubated at 5% CO2 and 37 °C. For uptake experiments, CHO cells were seeded in 24-well plates (BD Biosciences, Heidelberg, Germany) at a density of 25,000 cells/well. Uptake assays were generally performed on day 3 after seeding, when the cells had grown to confluence. 24 h before starting the transport experiments, cells were additionally treated with 5 mM sodium butyrate (Sigma-Aldrich, Munich, Germany) to induce gene expression. Prior to the uptake experiments, cells were rinsed twice with 2 mL of prewarmed (37 °C) uptake buffer (116.4 mM NaCl, 5.3 mM KCL, 1 mM NaH2PO4, 0.8 mM MgSO4, 5.5 mM D-glucose, and 20 mM Hepes, pH adjusted to 7.4). Uptake was initiated by adding 0.5 mL of uptake buffer containing 5 μM of the fluorescent OATP1B1/1B3 substrate FMTX[58] in the presence or absence of inhibitors. After 10 min culture at 37 °C, uptake was stopped by removing the uptake solution and washing the cells 3 times with ice-cold uptake buffer. The cells were then lysed with 0.5 mL of 0.5% Triton X-100 solution dissolved in PBS and placed on a plate shaker for 30 min. Fluorescence was measured in an Enspire Multimode plate reader (PerkinElmer, Waltham, MA) at an excitation wavelength of 485 and an emission wavelength of 528 nm.
(§2) IC50 values were determined by plotting the log inhibitor concentration against the net uptake rate and nonlinear regression of the data set using the equation [drawing 1] in which y is the net uptake rate (pmol/μg of protein/min), I is the inhibitor concentration (μM), s is the slope at the point of inversion, and a and b are the maximum and minimum values for cellular uptake (GraphPad Software, San Diego, CA, USA) . Net uptake was calculated for each inhibitor concentration as the difference in the uptake rates of the transporter-expressing and wild-type cell lines. Unless otherwise indicated, values are expressed as mean ± SD of three individual experiments. Significant differences from control values were determined using a Student’s paired t test at a significance level of p < 0.05.

OATP1B3 [2] = molecular target: T2, OATP1B3 (Homo sapiens, UniProt Q9NPD5); experiment: Inhibition of FMTX uptake in CHO cells stably transfected with OATP1B3; assay type: cell-based; settings: inhibitor class from measured IC50 against the consensus prediction
T2 construct: host or cells: CHO (Chinese hamster ovary) cells, stably transfected
T2 sequence (Q9NPD5 1-702): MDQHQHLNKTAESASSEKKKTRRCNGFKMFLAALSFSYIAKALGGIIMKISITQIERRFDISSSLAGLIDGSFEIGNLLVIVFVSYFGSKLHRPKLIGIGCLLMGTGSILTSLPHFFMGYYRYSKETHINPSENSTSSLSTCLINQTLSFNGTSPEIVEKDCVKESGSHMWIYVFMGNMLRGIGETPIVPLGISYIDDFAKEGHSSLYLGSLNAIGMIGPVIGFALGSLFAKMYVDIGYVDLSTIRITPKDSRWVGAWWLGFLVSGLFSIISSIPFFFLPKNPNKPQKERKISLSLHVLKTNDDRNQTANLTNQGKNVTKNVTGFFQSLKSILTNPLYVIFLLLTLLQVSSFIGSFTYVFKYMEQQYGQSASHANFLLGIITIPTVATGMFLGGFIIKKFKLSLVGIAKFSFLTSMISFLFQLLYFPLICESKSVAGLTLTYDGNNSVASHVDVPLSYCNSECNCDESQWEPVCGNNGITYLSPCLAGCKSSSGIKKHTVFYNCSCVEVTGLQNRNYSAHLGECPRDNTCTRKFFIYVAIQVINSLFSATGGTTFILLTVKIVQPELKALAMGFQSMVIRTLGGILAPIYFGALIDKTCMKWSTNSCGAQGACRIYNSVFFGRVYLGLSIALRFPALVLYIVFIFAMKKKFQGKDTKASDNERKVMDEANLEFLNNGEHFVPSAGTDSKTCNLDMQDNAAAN
Description: as §1, §2

OATP1B1 [3] = system: OATP1B1; set-up: method as in PMID 25603031; settings: commercial library of 640 FDA-approved drugs; cited from earlier work
[4] = cited from earlier work
OATP1B3 [5] = settings: commercial library of 640 FDA-approved drugs; cited from earlier work
OATP1B1 [6] = system: OATP1B1; set-up: method as in PMID 23571415; settings: cited from earlier work
OATP1B1 [7] = system: OATP1B1; set-up: method as in PMID 22541068; settings: cited from earlier work

## CO[C@H]1C[C@@H]2CC[C@@H](C)[C@@](O)(O2)C(=O)C(=O)N2CCCC[C@H]2C(=O)O[C@H]([C@H](C)C[C@@H]2CC[C@@H](O)[C@H](OC)C2)CC(=O)[C@H](C)/C=C(\C)[C@@H](O)[C@@H](OC)C(=O)[C@H](C)C[C@H](C)/C=C/C=C/C=C/1C [Rapamycin (Sirolimus)]
OATP1B1 [1]; CHO cells stably transfected with OATP1B1, 5 μM FMTX, 10 min, 37 °C, means ± SD of three independent experiments
  IC50: 0.62 ± 0.19 µM
OATP1B1 [1]; inhibitor class from measured IC50 against the consensus prediction
  Correctness of prediction, first symbol (OATP1B1): +++,+++ (strong inhibitor (IC50 values less than 1 μM))
OATP1B3 [2]
  Correctness of prediction, second symbol (OATP1B3): +++,+++ (strong inhibitor (IC50 values less than 1 μM))
OATP1B1 [3]
  rank among OATP1B1 inhibitors in the screen of van de Steeg et al.: 20 strongest OATP1B1 and OATP1B3 inhibitors
[4]
  hepatotoxicity, literature reports: some literature reports for hepatotoxicity
  hyperbilirubinemia, reports in online sources and literature: causing hyperbilirubinemia
OATP1B3 [5]
  rank among OATP1B3 inhibitors in the screen of van de Steeg et al.: 20 strongest OATP1B1 and OATP1B3 inhibitors

## O=C(O)c1cc(/N=N/c2ccc(S(=O)(=O)Nc3ccccn3)cc2)ccc1O [sulfasalazine]
OATP1B1 [6]
  OATP1B1 inhibition class as annotated by De Bruyn et al.: noninhibitor
OATP1B1 [7]
  OATP1B1 inhibition class as evaluated by Karlgren et al.: inhibitor
